Measurements reported in patent US20210255193A1, “LYSINE REACTIVE PROBES AND USES THEREOF” (The Scripps Research Institute, priority 2017, published 2021).

What was measured:
Assay in all cases: ABPP-SILAC IP experiment for SIN3A interacting proteins
Assay type in all cases: binding
Conditions in all cases: 21 50 μM
TGIF2-SIN3A interaction = target: T1, TGIF2-SIN3A interaction (Homo sapiens, UniProt Q96ST3)
T1 construct: expressed in transfected cells; host or cells: SILAC HEK 293T
Experimental: (§1) ABPP-SILAC IP experiment for SIN3A interacting proteins. All SILAC experiments were performed using the isotopically labeled human HEK 293T cell line generated by 8 passages in either light (100 μg ml^−1 each of L-arginine and L-lysine) or heavy (100 μg ml^−1 each of [^13C6^15N4]L-arginine and [^13C6^15N2]L-lysine) SILAC DMEM media (Thermo Scientific) supplemented with 10% dialyzed fetal calf serum, penicillin, streptomycin and glutamine. 2×10^5 SILAC HEK 293T cells were plated in 6 cm dishes in either heavy or light labeled SILAC media. Cells were transfected the next day with 1 μg of FLAG-GFP, or FLAG-SIN3A wild type, K155R, or K155W constructs as indicated. After 48 hours, cells were rinsed with ice-cold PBS and suspended in cold IP-lysis buffer (0.5% Chaps, 50 mM Hepes pH 7.4, 150 mM NaCl, and EDTA-free protease inhibitors and phosphatase inhibitors (Roche)) by gentle sonication. Samples were rotated for 30 minutes at 4° C. to complete lysis. For compound treatment experiments, 50 μM (final concentration) of 21 was added to samples prior to rotation. Samples were clarified by centrifugation for 1 minute at 16,000 rpm, and protein concentration was measured using the DC Protein Assay kit (Bio-Rad). Samples were normalized to 2 mg/mL by addition of cold IP-lysis buffer. 25 μL of anti-FLAG-M2 beads was added to the clarified supernatant and incubated for 3 h while rotating at 4° C. Beads were washed three times with cold PBS, and then eluted with 40 μL of […] for 10 min at 65° C. […] LC-MS spectra were collected and analyzed as described above with the following modifications. […] A list of all proteins enriched preferentially by SIN3A was generated from a comparison of SIN3A wild type vs GFP immunoprecipitations, including all proteins with at least two distinct quantified peptide sequences and a median ratio greater than or equal to 5 (R>5). […] Furthermore, if there were at least two quantified unique peptides, the median ratio of each protein's unique peptides (not occurring in any other human protein) were reported.

TGIF1-SIN3A interaction = target: T2, TGIF1-SIN3A interaction (Homo sapiens, UniProt Q96ST3)
T2 construct: expressed in transfected cells; host or cells: SILAC HEK 293T
T2 sequence (Q96ST3 1-400): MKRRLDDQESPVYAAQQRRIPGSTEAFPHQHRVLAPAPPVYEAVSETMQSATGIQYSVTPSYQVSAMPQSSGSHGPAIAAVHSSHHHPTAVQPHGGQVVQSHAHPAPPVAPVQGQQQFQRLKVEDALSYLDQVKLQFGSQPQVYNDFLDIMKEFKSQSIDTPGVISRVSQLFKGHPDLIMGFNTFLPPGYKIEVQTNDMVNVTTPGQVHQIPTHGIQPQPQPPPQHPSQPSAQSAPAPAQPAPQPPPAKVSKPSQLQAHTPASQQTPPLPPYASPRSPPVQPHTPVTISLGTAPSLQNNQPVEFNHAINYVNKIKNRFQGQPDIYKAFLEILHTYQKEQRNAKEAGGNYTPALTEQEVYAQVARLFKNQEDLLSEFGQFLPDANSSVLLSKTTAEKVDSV
Experimental: as §1

[1] = target: T3, SIN3A-interacting proteins MAX, MNT and MXI1 (Homo sapiens, UniProt Q96ST3)
T3 construct: expressed in transfected cells; host or cells: SILAC HEK 293T
T3 sequence (Q96ST3 1-400): as above
Experimental: as §1

T1 sequence (Q96ST3 1-400): as above

effect on TGIF2-SIN3A interaction (TGIF2-SIN3A interaction): marginal effect
effect on co-immunoprecipitation of MAX, MNT and MXI1 with WT-SIN3A [1]: not affected
Structure (SMILES): O=C(Oc1c(F)c(F)c(F)c(F)c1F)c1cc(C(F)(F)F)cc(C(F)(F)F)c1 [fragment 21, Pentafluorophenyl 3,5-bis(trifluoromethyl)benzoate]
effect on TGIF1-SIN3A interaction (TGIF1-SIN3A interaction): strongly blocked the TGIF1-SIN3A interaction
